We go through 1 compound from publication PMC10254045, “Elaboration of the Effective Multi-Target Therapeutic Platform for the Treatment of Alzheimer’s Disease Based on Novel Monoterpene-Derived Hydroxamic Acids” (International Journal of Molecular Sciences, 2023).

For one experiment, the system named is 5xFAD transgenic mice. Nature of the experiment: Morris Water Maze test in 5xFAD transgenic mice. The experiment is classed as in vivo. To be noted: 5xFAD mice; for Latency to platform: 15 mg/kg intraperitoneal. An excerpt:
As part of the in vivo testing of the biological activity of the leader compound, a transgenic mouse model with Alzheimer’s disease 5xFAD at the age of 13 months was used. This line expresses two human genes: APP (amyloid peptide precursor protein gene) with three types of mutations (Swedish (K670N, M671L), Florida (I716V) and London (V717I)), as well as the presenilin 1 gene with mutations (M146L and L286V) characteristic of this disease. Clinically healthy wildtype single-litter mice C57Bl6/j (n = 8) were used as a control group. Transgenic 5xFAD mice were randomly divided into two groups: (1) animals receiving intraperitoneal injections of hydroxamic acid 35a at a dose of 15 mg/kg (10% DMSO + NaCl) for three weeks—the 5xFAD + 35a group (n = 8) and (2) mice receiving an equivalent volume of solvent—the group 5xFAD (n = 8). All animals were kept in standard vivarium conditions at a temperature of 22 ± 1 °C and a humidity of 55% indoors with a 12-h light–dark cycle. The animals had no restrictions in the consumption of water and food. The study of the neurobehavioral profile was started on the 15th day of the experiment.
The Morris Water Maze test was performed for five consecutive days to assess the formation of spatial learning and memory dependent on the hippocampus.
The installation consisted of a pool (Open Science, Moscow, Russia) with a diameter of 150 cm, filled to a depth of 40 cm with water (22 ± 1 °C). The lighting conditions were as follows: the dark side of the pool—50 lux; the light side—75 lux. […]
Testing was carried out according to a standard protocol, where for the first four days mice were placed in a pool with a platform hidden under water (1.5 cm below the water surface) in one of the quadrants of the pool. […] To do this, the animals were placed in the pool for 90 s and a number of indicators of the neurobehavioral profile were recorded.
All experimental attempts in the Morris water maze were recorded on a camera capturing video images from above the pool, which were processed using EthoVision software.

Experiment [1] is described as follows: Oxygen radical absorbance capacity (ORAC). As to conditions: Trolox equivalent; compounds and Trolox 100 µM, AAPH 12 mM. From the text: DPPH is a stable chromogen radical, which is widely used to assess the antioxidant activity of biological objects, in particular when searching for potential therapeutic agents used to maintain the redox balance in the body and treat pathologies associated with the action of free radicals. In turn, the oxygen radical absorbance capacity (ORAC) analysis is based on the removal by potential antioxidants of peroxyl radicals generated by AAPH (2,2’-axobis-2-methyl-propanimidamide, dihydrochloride), preventing the degradation of the fluorescein probe.
The analysis of the absorption capacity of oxygen radicals was performed as described in [151], with some modifications. Trolox (Sigma Aldrich, St. Louis, MI, USA) was used as a standard antioxidant. The studied compounds were introduced into the holes of a 96-hole black tablet with a transparent bottom with Trolox (25 µL; the final concentration was 100 µM) and fluorescein (150 µL; the final concentration was 80 nM, Sigma Aldrich, St. Louis, MI, USA). The resulting mixture was shaken and incubated for 30 min at 37 °C. After a 30-min incubation period, a solution of 2,2’-azobis (2-amidinopropane) dihydrochloride (AAPH) (25 µL; final concentration of 12 mM, Sigma Aldrich, St. Louis, MI, USA) was quickly introduced into all wells of the tablet. The tablet was immediately placed in a multifunctional tablet analyzer Cytation™ 3 (BioTek Instruments, Inc., Winooski, VT, USA). The fluorescence intensity was recorded for 300 min at λex = 480 nm, λem = 520 nm with an interval of every 5 min. In the same experiment, calibration solutions for the reference antioxidant Trolox were used to confirm the validity of the use of this method (0, 6.25, 12.5, 25, 50 and 100 µM).

Structures are written as SMILES.

In the case of `C=C(C)[C@@H]1CC=C(CNC(=O)/C=C/c2ccc(C(=O)NO)cc2)CC1` [Compound 35a, (S,E)-N-hydroxy-4-(3-oxo-3-(((4-(prop-1-en-2-yl)cyclohex-1-en-1-yl)methyl)amino)prop-1-en-1-yl)benzamide], the Latency to platform with 5xFAD transgenic mice (first day of training) is reported as 55.70 ± 2.10 s; in the experiment with 5xFAD transgenic mice (fourth day of training, p = 0.039 vs day 1), 40.93 ± 5.47 s. Further, in the experiment with 5xFAD transgenic mice (15 mg/kg, fifth day, p = 0.203 vs C57Bl6/j), the “number of entrances to the target quadrant, Probe trial” value is “same number of entrances to the target quadrant of the maze was found with the control group”. For the same compound, the “ORAC value (TE)” value in experiment [1] stood at 1.15 TE.
